# According to patent US10653658B2, “Biofilm inhibiting compositions enhancing weight gain in livestock” (Akeso Biomedical, Inc., priority 2015, dated 2020):
# Marks after values point to notes of the source that are not given here.
# Test: Growth performance of broilers given FeQ or FeTyr in water/feed, dirty litter Campylobacter challenge at day 20 (Example 1)
# Assay type: in vivo, Ross 308 male broilers
# Settings: for AFD (average feed intake) Day 0-20 / AWG (average weight gain) Day 0-20 / MFCR (mortality adjusted) Day 0-20: before challenge
# Protocol: A study was performed to evaluate growth promotion and reduction of Campylobacter carriage using FeQ and FeTyr in Ross 308 male broilers with 7 treatment groups. Each treatment group comprised four replicates of 10 birds per pen (40 birds/treatment group and 4 pens of 10 birds/treatment group), with 2 control groups and 5 test groups. All the test groups and one of the control groups were exposed at day 20 of the trial to dirty litter, which tested positive for Campylobacter. This method was used to provide a more natural method to Campylobacter challenge the birds. Thus there was a positive control where one treatment group was challenged with Campylobacter and one negative control group where the birds were not challenged, and five treatment groups that were all challenged with Campylobacter. The total number of birds used in the 7 treatment groups was 280. Treatment group 1 was a negative control where birds just received the commercial feed, and were not challenged with dirty litter containing Campylobacter. Treatment group 2 was the positive control where the birds received the commercial feed, and were challenged with dirty litter containing Campylobacter at day 20. Treatment group 3 received 0.22 g/L of FeQ in their drinking water and 0.22 g/Kg FeQ in their feed during the entire trial, and was challenged with dirty litter containing Campylobacter at day 20. Treatment group 5 received 0.22 g/L of FeQ in their drinking water during the entire trial, and was challenged with dirty litter containing Campylobacter at day 20. Treatment group 6 received 0.22 g/kg FeQ in their feed during the entire trial, and was challenged with dirty litter containing Campylobacter at day 20. Treatment group 7 received 0.022 g/L FeQ in their drinking water during the entire trial, and was challenged with dirty litter containing Campylobacter at day 20. Treatment group 8 received 0.02 g/L FeTyr in their drinking water during the entire trial, and was challenged with dirty litter containing Campylobacter at day 20. The FeTyr was pre-dissolved in DMSO, and diluted to provide a solution of 0.02 g/L of FeTyr in water. (An additional treatment group 4 was terminated due to solubility issues.)
# The birds were fed with a commercial three-phase feeding program using starter, grower and finisher feeds with formulations shown in Table 2. All diets had coccidiostat (MAXIBAN® at 0.0625% in starter and […] and MONTEBAN® at 0.06% in finisher phase). Xylanase (RONOZYME® WX at 200 g per ton) and phytase (RONOZYME® P at 150 grams per ton) were added to all diets.
# The feeding program is show in Table 3. The birds were reared in floor pens to day 42, and fed starter, grower and finisher feed at day 0 to 11, 11 to 24, and 24 to 42 days, respectively. All birds were weighed individually and feed weigh backs recorded per pen at day 0, 11, 21, 24 and 42 days.
# Prior to challenging the chickens with dirty litter containing Campylobacter at day 20, each pen was tested for Campylobacter using cloacal swabs. All pens tested negative for Campylobacter prior to the challenge. At day 20, litter, which was naturally Campylobacter-contaminated, was tested to confirm the presence of Campylobacter, and then added (approximately 2 kg/pen) to the litter in all pens except in pens for treatment group 1 (the negative control). At day 28, the pen litter was sampled to confirm the presence or absence of Campylobacter. At day 41 and 42, caecal samples were taken from 3 birds per pen (12 birds per treatment group) and tested for Campylobacter enumeration. At day 42, digesta, fecal samples, and caecal content was taken from all birds, and pooled per pen. Two birds per pen were also taken from treatment groups 1-3, euthanized, and blood samples taken. […]
# [1] = FeQ groups 3, 5, 6, 7 pooled, absence of Campylobacter challenge
# [2] = treatment 3: 0.22 g/L FeQ in water + 0.22 g/kg FeQ in feed
# [3] = treatment 5: 0.22 g/L FeQ in water
# [4] = treatment 6: 0.22 g/kg FeQ in feed
# [5] = treatment 7: 0.022 g/L FeQ in water
compound,measurement,setting,value
"O=C([O-])C1(O)CC(O)C(O)C(O)C1.O=C([O-])C1(O)CC(O)C(O)C(O)C1.O=C([O-])C1(O)CC(O)C(O)C(O)C1.[Fe+3] (centres unmarked) [FeQ, Ferric Quinate]",ABW (average body weight) Day 11,[1],0.339 kg
same,ABW (average body weight) Day 20,[1],0.963 kg
same,AFD (average feed intake) 0-20 days,[1],1.191 kg
same,AWG (average weight gain) 0-20 days,[1],0.923 kg
same,"effect on growth performance in the absence of Campylobacter challenge, first 20 days",compared with control groups 1 and 2,promotes growth of chicken
same,ABW (average body weight) Day 0,[2],0.040 kg
same,ABW (average body weight) Day 11,[2],0.346 kg
same,ABW (average body weight) Day 20,[2],0.972 kg
same,ABW (average body weight) Day 25,[2],1.424 kg
same,ABW (average body weight) Day 42,[2],3.342 kg
same,AFD (average feed intake) Day 0-11,[2],0.356 kg
same,AFD (average feed intake) Day 0-42,[2],5.267 kg
same,AFD (average feed intake) Day 11-20,[2],0.857 kg
same,AFD (average feed intake) Day 11-25,[2],1.524 kg
same,AFD (average feed intake) Day 20-25,[2],0.667 kg
same,AFD (average feed intake) Day 20-42,[2],4.054 kg
same,AFD (average feed intake) Day 25-42,[2],3.387 kg
same,AWG (average weight gain) Day 0-11,[2],0.306 kg
same,AWG (average weight gain) Day 0-42,[2],3.302^ab kg
same,AWG (average weight gain) Day 11-20,[2],0.625 kg
same,AWG (average weight gain) Day 11-25,[2],1.078 kg
same,AWG (average weight gain) Day 20-25,[2],0.453 kg
same,AWG (average weight gain) Day 20-42,[2],2.370^ab kg
same,AWG (average weight gain) Day 25-42,[2],1.918^ab kg
same,EPEF (European production and efficiency factor) Day 20,[2],350.4
same,EPEF (European production and efficiency factor) Day 42,[2],262.9
same,MFCR (mortality adjusted FCR) Day 11-20,[2],1.375
same,MFCR (mortality adjusted FCR) Day 11-25,[2],1.417
same,MFCR (mortality adjusted FCR) Day 20-25,[2],1.477
same,MFCR (mortality adjusted FCR) Day 25-42,[2],1.773
same,MFCR (mortality adjusted feed conversion ratio) Day 0-11,[2],1.181^ab
same,MFCR (mortality adjusted) Day 0-42,[2],1.595
same,MFCR (mortality adjusted) Day 20-42,[2],1.713
same,AFD (average feed intake) Day 0-20,[2],1.213 kg
same,AWG (average weight gain) Day 0-20,[2],0.931 kg
same,MFCR (mortality adjusted) Day 0-20,[2],1.310
same,ABW (average body weight) Day 0,[3],0.040 kg
same,ABW (average body weight) Day 11,[3],0.334 kg
same,ABW (average body weight) Day 20,[3],0.943 kg
same,ABW (average body weight) Day 25,[3],1.384 kg
same,ABW (average body weight) Day 42,[3],3.407 kg
same,AFD (average feed intake) Day 0-11,[3],0.352 kg
same,AFD (average feed intake) Day 0-42,[3],5.188 kg
same,AFD (average feed intake) Day 11-20,[3],0.821 kg
same,AFD (average feed intake) Day 11-25,[3],1.479 kg
same,AFD (average feed intake) Day 20-25,[3],0.658 kg
same,AFD (average feed intake) Day 20-42,[3],4.015 kg
same,AFD (average feed intake) Day 25-42,[3],3.357 kg
same,AWG (average weight gain) Day 0-11,[3],0.294 kg
same,AWG (average weight gain) Day 0-42,[3],3.367^ab kg
same,AWG (average weight gain) Day 11-20,[3],0.609 kg
same,AWG (average weight gain) Day 11-25,[3],1.050 kg
same,AWG (average weight gain) Day 20-25,[3],0.441 kg
same,AWG (average weight gain) Day 20-42,[3],2.464^ab kg
same,AWG (average weight gain) Day 25-42,[3],2.023^b kg
same,EPEF (European production and efficiency factor) Day 20,[3],352.0
same,EPEF (European production and efficiency factor) Day 42,[3],278.3
same,MFCR (mortality adjusted FCR) Day 11-20,[3],1.348
same,MFCR (mortality adjusted FCR) Day 11-25,[3],1.409
same,MFCR (mortality adjusted FCR) Day 20-25,[3],1.495
same,MFCR (mortality adjusted FCR) Day 25-42,[3],1.706
same,MFCR (mortality adjusted feed conversion ratio) Day 0-11,[3],1.210^ab
same,MFCR (mortality adjusted) Day 0-42,[3],1.560
same,MFCR (mortality adjusted) Day 20-42,[3],1.665
same,AFD (average feed intake) Day 0-20,[3],1.173 kg
same,AWG (average weight gain) Day 0-20,[3],0.903 kg
same,MFCR (mortality adjusted) Day 0-20,[3],1.303
same,ABW (average body weight) Day 0,[4],0.041 kg
same,ABW (average body weight) Day 11,[4],0.351 kg
same,ABW (average body weight) Day 20,[4],0.991 kg
same,ABW (average body weight) Day 25,[4],1.426 kg
same,ABW (average body weight) Day 42,[4],3.464 kg
same,AFD (average feed intake) Day 0-11,[4],0.360 kg
same,AFD (average feed intake) Day 0-42,[4],5.201 kg
same,AFD (average feed intake) Day 11-20,[4],0.841 kg
same,AFD (average feed intake) Day 11-25,[4],1.526 kg
same,AFD (average feed intake) Day 20-25,[4],0.685 kg
same,AFD (average feed intake) Day 20-42,[4],4.001 kg
same,AFD (average feed intake) Day 25-42,[4],3.315 kg
same,AWG (average weight gain) Day 0-11,[4],0.310 kg
same,AWG (average weight gain) Day 0-42,[4],3.423^b kg
same,AWG (average weight gain) Day 11-20,[4],0.640 kg
same,AWG (average weight gain) Day 11-25,[4],1.075 kg
same,AWG (average weight gain) Day 20-25,[4],0.434 kg
same,AWG (average weight gain) Day 20-42,[4],2.473^ab kg
same,AWG (average weight gain) Day 25-42,[4],2.039^b kg
same,EPEF (European production and efficiency factor) Day 20,[4],364.8
same,EPEF (European production and efficiency factor) Day 42,[4],265.0
same,MFCR (mortality adjusted FCR) Day 11-20,[4],1.343
same,MFCR (mortality adjusted FCR) Day 11-25,[4],1.440
same,MFCR (mortality adjusted FCR) Day 20-25,[4],1.599
same,MFCR (mortality adjusted FCR) Day 25-42,[4],1.704
same,MFCR (mortality adjusted feed conversion ratio) Day 0-11,[4],1.168^a
same,MFCR (mortality adjusted) Day 0-42,[4],1.563
same,MFCR (mortality adjusted) Day 20-42,[4],1.678
same,AFD (average feed intake) Day 0-20,[4],1.201 kg
same,AWG (average weight gain) Day 0-20,[4],0.951 kg
same,MFCR (mortality adjusted) Day 0-20,[4],1.284
same,ABW (average body weight) Day 0,[5],0.040 kg
same,ABW (average body weight) Day 11,[5],0.325 kg
same,ABW (average body weight) Day 20,[5],0.947 kg
same,ABW (average body weight) Day 25,[5],1.388 kg
same,ABW (average body weight) Day 42,[5],3.304 kg
same,AFD (average feed intake) Day 0-11,[5],0.348 kg
same,AFD (average feed intake) Day 0-42,[5],5.201 kg
same,AFD (average feed intake) Day 11-20,[5],0.829 kg
same,AFD (average feed intake) Day 11-25,[5],1.490 kg
same,AFD (average feed intake) Day 20-25,[5],0.661 kg
same,AFD (average feed intake) Day 20-42,[5],4.023 kg
same,AFD (average feed intake) Day 25-42,[5],3.362 kg
same,AWG (average weight gain) Day 0-11,[5],0.285 kg
same,AWG (average weight gain) Day 0-42,[5],3.265^ab kg
same,AWG (average weight gain) Day 11-20,[5],0.622 kg
same,AWG (average weight gain) Day 11-25,[5],1.064 kg
same,AWG (average weight gain) Day 20-25,[5],0.441 kg
same,AWG (average weight gain) Day 20-42,[5],2.357^ab kg
same,AWG (average weight gain) Day 25-42,[5],1.916^ab kg
same,EPEF (European production and efficiency factor) Day 20,[5],354.5
same,EPEF (European production and efficiency factor) Day 42,[5],276.2
same,MFCR (mortality adjusted FCR) Day 11-20,[5],1.333
same,MFCR (mortality adjusted FCR) Day 11-25,[5],1.406
same,MFCR (mortality adjusted FCR) Day 20-25,[5],1.513
same,MFCR (mortality adjusted FCR) Day 25-42,[5],1.793
same,MFCR (mortality adjusted feed conversion ratio) Day 0-11,[5],1.236^b
same,MFCR (mortality adjusted) Day 0-42,[5],1.612
same,MFCR (mortality adjusted) Day 20-42,[5],1.739
same,AFD (average feed intake) Day 0-20,[5],1.178 kg
same,AWG (average weight gain) Day 0-20,[5],0.907 kg
same,MFCR (mortality adjusted) Day 0-20,[5],1.302
same,effect on MFCR at day 42 compared with positive control (FIG. 2),"treatment groups 3, 5, 6, 7 and 8, challenged with dirty litter",positive effect on MFCR
same,effect on growth: average body weight at day 42 compared with positive control (FIG. 1),"treatment groups 3, 5, 6, 7 and 8, challenged with dirty litter containing Campylobacter",positive effect on growth
